Experimental data reported in PMC7112121 (Bioorganic Chemistry, 2019).
Where two headings read alike, the source gives them in different places.

B1: Urtica dioica agglutinin (protein, UniProt P11218 24-372, looked up)
Lectin/endochitinase 1: QRCGSQGGGGTCPALWCCSIWGWCGDSEPYCGRTCENKCWSGERSDHRCGAAVGNPPCGQDRCCSVHGWCGGGNDYCSGSKCQYRCSSSVRGPRVALSGNSTANSIGNVVVTEPLFDQMFSHRKDCPSQGFYSYHSFLVAAESFPAFGTIGDVATRKREVAAFLAHISQATSGERSDVENPHAWGLCHINTTTVTENDFCTSSDWPCAAGKKYSPRGPIQLTHNFNYGLAGQAIGEDLIQNPDLVEKDPIISFKTALWFWMSQHDNKPSCHDIVLNANSAANRIPNKGVIGNIISRAFGHDDFAVRSSSIGFYKRYCDMLGVSYGHDLKYWFDNTPSSEFQRIQMRVAA

Key:
Vaccinia virus = assay: microbe, parasite or virus in culture; type: cell-based; conditions: for EC50: Orthopoxvirus vaccinia, HEL, read-out: Antiviral EC50 Vaccinia virus
Reovirus-1 = assay: Antiviral CPE reduction assay, Reovirus-1 in VERO cells; type: cell-based; conditions: for EC50: Vero, read-out: Antiviral EC50 Reovirus-1; for Antiviral EC50 Reovirus-1: VERO cells, CPE by microscopy, mean of two experiments
VERO cells = conditions: minimum cytotoxic concentration
Parainfluenza-3 virus = assay: Antiviral CPE reduction assay, Parainfluenza-3 virus in VERO cells; type: cell-based; conditions: for EC50: Vero, read-out: Antiviral EC50 Parainfluenza-3 virus; for Antiviral EC50 Parainfluenza-3 virus: VERO cells, CPE by microscopy, mean of two experiments
Coxsackie B4 virus = assay: Antiviral CPE reduction assay, Coxsackie B4 virus in VERO cells; type: cell-based; conditions: for EC50: Enterovirus B, B4, Vero, read-out: Antiviral EC50 Coxsackie B4 virus; for Antiviral EC50 Coxsackie B4 virus: CPE by microscopy, mean of two experiments
HSV-1 = assay: Antiviral CPE reduction assay, HSV-1 in HEL cells; type: cell-based, Herpes simplex virus-1; conditions: for EC50: Human alphaherpesvirus 1, HEL, read-out: Antiviral EC50 HSV-1; for Antiviral EC50 HSV-1: HEL cells, CPE by microscopy, mean of two experiments
Punto Toro virus = assay: Antiviral CPE reduction assay, Punto Toro virus in VERO cells; type: cell-based, Punta toro virus; conditions: for EC50: Punta Toro virus, Vero, read-out: Antiviral EC50 Punto Toro virus; for Antiviral EC50 Punto Toro virus: VERO cells, CPE by microscopy, mean of two experiments
Sindbis virus = assay: Antiviral CPE reduction assay, Sindbis virus in VERO cells; type: cell-based; conditions: for EC50: Sindbis virus, Vero, read-out: Antiviral EC50 Sindbis virus; for Antiviral EC50 Sindbis virus: VERO cells, CPE by microscopy, mean of two experiments
[1] = test system: human embryonic lung (HEL) fibroblast cells; conditions: minimum cytotoxic concentration
ACV^r-HSV-1 = assay: Antiviral CPE reduction assay, ACVr-HSV-1 in HEL cells; type: cell-based; conditions: for EC50: Human alphaherpesvirus 1, HEL, read-out: Antiviral EC50 ACV^r-HSV-1; for Antiviral EC50 ACV^r-HSV-1: HEL cells, CPE by microscopy, mean of two experiments
HSV-2 = assay: Antiviral CPE reduction assay, HSV-2 in HEL cells; type: cell-based, Herpes simplex virus-2; conditions: for EC50: Human alphaherpesvirus 2, HEL, read-out: Antiviral EC50 HSV-2; for Antiviral EC50 HSV-2: HEL cells, CPE by microscopy, mean of two experiments
Feline coronavirus = assay: microbe, parasite or virus in culture; conditions: Alphacoronavirus 1, CRFK, read-out: Antiviral EC50 Feline coronavirus
Feline herpesvirus = assay: Antiviral CPE reduction assay, Feline herpesvirus in CRFK cells; type: cell-based; conditions: Felid alphaherpesvirus 1, CRFK, read-out: Antiviral EC50 Feline herpesvirus
[2] = test system: Mycobacterium tuberculosis H37Rv; conditions: for H37Rv Finding Activity: M. tuberculosis H37Rv, MABA in BACTEC 12B medium
[3] = test system: Vesicular stomatitis virus; type: cell-based
CRFK feline kidney cells = conditions: MTS cell viability assay
[4] = microscopic inspection of cell morphology

Molecule	EC50 (Vaccinia virus)	EC50 (Reovirus-1)	Cytotoxicity MCC (VERO cells; [4]) [µg/mL]	EC50 (Parainfluenza-3 virus)	EC50 (Coxsackie B4 virus)	EC50 (HSV-1)	EC50 (Punto Toro virus)	EC50 (Sindbis virus)	Cytotoxicity MCC [1, 4] [µg/mL]	EC50 (ACV^r-HSV-1)	EC50 (HSV-2)	EC50 (Feline coronavirus)	EC50 (Feline herpesvirus)	also measured
CC1SC2(CCCC2)N(NC(=O)Cc2csc3nc(-c4ccc(Br)cc4)cn23)C1=O (centres unmarked) [Compound 6a, 2-[6-(4-Bromophenyl)imidazo[2,1-b]thiazole-3-yl]-N-(2-methyl-3-oxo-1-thia-4-azaspiro[4.4]non-4-yl)acetamide]	> 100 µg/mL	> 100 µg/mL	100	> 100 µg/mL	> 100 µg/mL	> 100 µg/mL	> 100 µg/mL	> 100 µg/mL	≥20	> 100 µg/mL	> 100 µg/mL	> 100 µg/mL	> 100 µg/mL	
O=C(Cc1csc2nc(-c3ccc(Br)cc3)cn12)NN1C(=O)CSC12CCCCC2 [Compound 5b, 2-[6-(4-Bromophenyl)imidazo[2,1-b]thiazole-3-yl]-N-(3-oxo-1-thia-4-azaspiro[4.5]dec-4-yl)acetamide]	> 100 µg/mL	> 100 µg/mL	>100	> 100 µg/mL	> 100 µg/mL	> 100 µg/mL	> 100 µg/mL	> 100 µg/mL	>100	> 100 µg/mL	> 100 µg/mL	> 100 µg/mL	> 100 µg/mL	H37Rv Finding MIC [2]: 1.566 µg/mL; H37Rv Finding Activity [2]: Active
O=C(Cc1csc2nc(-c3ccc(Br)cc3)cn12)NN1C(=O)CSC12CCCC2 [Compound 5a, 2-[6-(4-Bromophenyl)imidazo[2,1-b]thiazole-3-yl]-N-(3-oxo-1-thia-4-azaspiro[4.4]non-4-yl)acetamide]	> 100 µg/mL	> 100 µg/mL	≥20	> 100 µg/mL	> 100 µg/mL	> 100 µg/mL	> 100 µg/mL	> 100 µg/mL	100	> 100 µg/mL	> 100 µg/mL	> 100 µg/mL	> 100 µg/mL	H37Rv Finding MIC [2]: 8.453 µg/mL; H37Rv Finding Activity [2]: Active
CC1SC2(CCC(c3ccccc3)CC2)N(NC(=O)Cc2csc3nc(-c4ccc(Br)cc4)cn23)C1=O (centres unmarked) [Compound 6c, 2-[6-(4-Bromophenyl)imidazo[2,1-b]thiazole-3-yl]-N-(2-methyl-8-phenyl-3-oxo-1-thia-4-azaspiro[4.5]dec-4-yl)acetamide]	> 100 µg/mL	> 100 µg/mL	20	> 100 µg/mL	> 100 µg/mL	> 100 µg/mL	> 100 µg/mL	> 100 µg/mL	20	> 100 µg/mL	> 100 µg/mL	> 100 µg/mL	> 100 µg/mL	
NC(=O)c1ncn([C@@H]2O[C@H](CO)[C@@H](O)[C@H]2O)n1 [Ribavirin, reference compound]		> 250 µM		50 µM	> 250 µM		38 µM	> 250 µM						Cytotoxicity MCC (VERO cells; reference in µM): >250 µM
CC1SC2(CCC(c3ccc(O)cc3)CC2)N(NC(=O)Cc2csc3nc(-c4ccc(Br)cc4)cn23)C1=O (centres unmarked) [Compound 6d, 2-[6-(4-Bromophenyl)imidazo[2,1-b]thiazole-3-yl]-N-(2-methyl-8-(4-hydroxyphenyl)-3-oxo-1-thia-4-azaspiro[4.5]dec-4-yl)acetamide]	> 100 µg/mL	> 100 µg/mL	≥20	> 100 µg/mL	10 µg/mL	> 100 µg/mL	> 100 µg/mL	> 100 µg/mL	≥20	> 100 µg/mL	> 100 µg/mL	> 100 µg/mL	> 100 µg/mL	selectivity index (Coxsackie B4 virus; Coxsackie B4 virus, VERO cells): ≥ 2
Nc1nc(O)c2ncn(COC(CO)CO)c2n1 [Ganciclovir, reference compound]	> 100 µM					25 nM				60 µM	30 nM	> 100 µM	1900 nM	Cytotoxicity MCC ([1]; reference in µM): >100 µM
CC1SC2(CCCCC2)N(NC(=O)Cc2csc3nc(-c4ccc(Br)cc4)cn23)C1=O (centres unmarked) [Compound 6b, 2-[6-(4-Bromophenyl)imizado[2,1-b]thiazole-3-yl]-N-(2-methyl-3-oxo-1-thia-4-azaspiro[4], [5]dec-4-yl)acetamide]			100						20					Antiviral EC50 Vaccinia virus (Vaccinia virus): >100 µg/mL; Antiviral EC50 Reovirus-1 (Reovirus-1): >100 µg/mL; Antiviral EC50 Parainfluenza-3 virus (Parainfluenza-3 virus): >100 µg/mL; Antiviral EC50 Vesicular stomatitis virus [3]: >100 µg/mL; Antiviral EC50 Coxsackie B4 virus (Coxsackie B4 virus; VERO cells): >100 µg/mL; Antiviral EC50 HSV-1 (HSV-1): >100 µg/mL; Antiviral EC50 Punto Toro virus (Punto Toro virus): >100 µg/mL; Antiviral EC50 Sindbis virus (Sindbis virus): >100 µg/mL; Antiviral EC50 ACV^r-HSV-1 (ACV^r-HSV-1): >100 µg/mL; Antiviral EC50 HSV-2 (HSV-2): >100 µg/mL; Cytotoxicity CC50 (CRFK feline kidney cells): 9.2 µg/mL
dextran sulphate MW 5,000 [DS-5,000, reference compound]			>100											Antiviral EC50 Reovirus-1 (Reovirus-1): ≥100 µg/mL; Antiviral EC50 Parainfluenza-3 virus (Parainfluenza-3 virus): >100 µg/mL
O=C(Cc1csc2nc(-c3ccc(Br)cc3)cn12)NN=C1CCCCC1 [Compound 4b, 6-(4-Bromophenyl)-N^2-(cyclohexylidene)imidazo[2,1-b]thiazole-3-acetohydrazide]			>100						20					Antiviral EC50 Vaccinia virus (Vaccinia virus): >100 µg/mL; Antiviral EC50 Reovirus-1 (Reovirus-1): >100 µg/mL; H37Rv Finding MIC [2]: >100 µg/mL; IC50 [2]: > 100 µg/mL; H37Rv Finding Activity [2]: Inactive; Antiviral EC50 Parainfluenza-3 virus (Parainfluenza-3 virus): >100 µg/mL; Antiviral EC50 Vesicular stomatitis virus [3]: >100 µg/mL; Antiviral EC50 Coxsackie B4 virus (Coxsackie B4 virus; VERO cells): >100 µg/mL; Antiviral EC50 HSV-1 (HSV-1): >100 µg/mL; Antiviral EC50 Punto Toro virus (Punto Toro virus): >100 µg/mL; Antiviral EC50 Sindbis virus (Sindbis virus): >100 µg/mL; Antiviral EC50 ACV^r-HSV-1 (ACV^r-HSV-1): >100 µg/mL; Antiviral EC50 HSV-2 (HSV-2): >100 µg/mL; Cytotoxicity CC50 (CRFK feline kidney cells): >100 µg/mL
Nc1ccn(C[C@@H](CO)OCP(=O)(O)O)c(=O)n1 [Cidofovir, reference compound]														Cytotoxicity MCC ([1]; reference in µM): >250 µM
Nc1nc2c(ncn2COCCO)c(=O)[nH]1 [Acyclovir, reference compound]	> 250 µM									≥ 112 µM	500 nM			
O=c1[nH]c(=O)n([C@H]2C[C@H](O)[C@@H](CO)O2)cc1/C=C/Br [Brivudine, reference compound]											50000 nM			Cytotoxicity MCC ([1]; reference in µM): >250 µM
B1														Cytotoxicity CC50 (CRFK feline kidney cells): 29 µg/mL
